Results as given in patent publication US10722501B2 (BAYER AKTIENGESELLSCHAFT, priority 2016, dated 2020).

Biological target: T1, recombinant full-length human prolyl endopeptidase (PREP) (Homo sapiens, UniProt P48147)
T1 construct: To recombinant full-length human prolyl endopeptidase (PREP, R&D-Systems, 4308-SE); purchased R&D-Systems 4308-SE
T1 sequence (P48147 1-710): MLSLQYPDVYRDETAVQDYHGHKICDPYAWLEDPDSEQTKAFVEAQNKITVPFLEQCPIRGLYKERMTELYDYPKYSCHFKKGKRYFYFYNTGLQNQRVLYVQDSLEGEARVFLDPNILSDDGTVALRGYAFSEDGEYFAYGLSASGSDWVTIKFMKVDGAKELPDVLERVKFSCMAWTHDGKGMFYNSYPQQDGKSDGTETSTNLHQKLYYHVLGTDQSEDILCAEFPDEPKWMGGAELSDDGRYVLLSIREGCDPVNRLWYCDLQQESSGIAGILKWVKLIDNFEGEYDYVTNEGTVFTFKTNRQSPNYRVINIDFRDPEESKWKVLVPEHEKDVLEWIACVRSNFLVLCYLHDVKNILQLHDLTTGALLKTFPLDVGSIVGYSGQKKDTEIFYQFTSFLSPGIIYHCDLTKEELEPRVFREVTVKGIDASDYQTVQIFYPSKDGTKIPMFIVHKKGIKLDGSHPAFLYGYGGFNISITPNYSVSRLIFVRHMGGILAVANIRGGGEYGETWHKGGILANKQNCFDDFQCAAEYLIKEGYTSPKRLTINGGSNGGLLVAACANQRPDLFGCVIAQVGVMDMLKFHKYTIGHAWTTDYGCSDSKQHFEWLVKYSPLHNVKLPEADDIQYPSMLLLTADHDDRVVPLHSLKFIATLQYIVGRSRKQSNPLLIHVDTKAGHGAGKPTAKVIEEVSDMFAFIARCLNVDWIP
Assay: Biochemical human prolyl endopeptidase (PREP) assay with fluorescently labelled substrate
Conditions: substrate Z-Gly-Pro-AMC 50 μM, 32° C., 60 min; some as mean values from multiple independent determinations
Method in brief: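 0.4 nM (final, example) recombinant PREP in pH 7.5 Tris buffer with EDTA, GSH, BSA and Brij-35; compounds at 1 nM to 30 μM. Reaction started with 50 μM Z-Gly-Pro-AMC and followed by fluorescence (ex 360/em 465 nm) at 32° C for 60 min. IC50 interpolated from percent activity based on initial slopes.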

IC50 | SMILES
4.3 nM | Cc1ccc(Cn2nc3n(c2=O)C(C(=O)N2CC(O)C2)CCC3)cc1 (single isomer, unassigned) [Example 121, (5RS)-5-[(3-Hydroxyazetidin-1-yl)carbonyl]-2-(4-methylbenzyl)-5,6,7,8-tetrahydro[1,2,4]triazolo[4,3-a]pyridin-3(2H)-one]
10 nM | Cc1ccc(Cn2nc3n(c2=O)C(C(=O)N2CCC4(C2)CC4(F)F)CCC3)cc1 (single isomer, unassigned) [Example 129, (5RS)-{[(3RS)-1,1-Difluoro-5-azaspiro[2.4]hept-5-yl]carbonyl}-2-(4-methylbenzyl)-5,6,7,8-tetrahydro[1,2,4]triazolo[4,3-a]pyridin-3(2H)-one]
34.5 nM | CC1Cc2nn(Cc3ccc(C(F)(F)F)nc3)c(=O)n2C(C(=O)N2CC(O)C2)C1 (single isomer, unassigned) [Example 135, (5RS,7RS)-5-[(3-Hydroxyazetidin-1-yl)carbonyl]-7-methyl-2-{[6-(trifluoromethyl)pyridin-3-yl]methyl}-5,6,7,8-tetrahydro[1,2,4]triazolo[4,3-a]pyridin-3(2H)-one]
130 nM | CC1Cc2nn(Cc3ccc(C(F)(F)F)nc3)c(=O)n2C(C(=O)N2CC[C@H](F)C2)C1 (single isomer, unassigned) [Example 137]
1 nM | CC1Cc2nn(Cc3ccc(C(F)(F)F)nc3)c(=O)n2C(C(=O)N2CC[C@H](F)C2)C1 (single isomer, unassigned) [Example 138]
0.87 nM | Cc1ccc(Cn2nc3n(c2=O)C(C(=O)N2CCCC2)C(C)CC3)cc1 (single isomer, unassigned) [Example 139, (5RS,6RS)-6-Methyl-2-(4-methylbenzyl)-5-(pyrrolidin-1-ylcarbonyl)-5,6,7,8-tetrahydro[1,2,4]triazolo[4,3-a]pyridin-3(2H)-one]
2.55 nM | Cc1ccc(Cn2nc3n(c2=O)C(C(=O)N2CCS(=O)(=O)C2)CCC3)cc1 (single isomer, unassigned) [Example 142, (5RS)-5-[(1,1-Dioxido-1,3-thiazolidin-3-yl)carbonyl]-2-(4-methylbenzyl)-5,6,7,8-tetrahydro[1,2,4]triazolo[4,3-a]pyridin-3(2H)-one]
445 nM | O=C(C1CCc2nn(Cc3ccnc(C(F)(F)F)c3F)c(=O)n21)N1C[C@@H](F)[C@@H](F)C1 (single isomer, unassigned) [Example 176]
6.9 nM | O=C(C1CCc2nn(Cc3ccnc(C(F)(F)F)c3F)c(=O)n21)N1C[C@@H](F)[C@@H](F)C1 (single isomer, unassigned) [Example 177]
600 nM | O=C(C1CCc2nn(Cc3ccnc(C(F)(F)F)c3F)c(=O)n21)N1CC[C@H](F)C1 (single isomer, unassigned) [Example 179]
3.2 nM | O=C(C1CCc2nn(Cc3ccnc(C(F)(F)F)c3F)c(=O)n21)N1CC[C@H](F)C1 (single isomer, unassigned) [Example 180]
0.37 nM | O=C([C@@H]1CCCc2nn(CC3CCC(C(F)(F)F)CC3)c(=O)n21)N1CCCC1 (single isomer, unassigned) [Example 185]
1.25 nM | O=C([C@@H]1CCCc2nn(CC3CCC(C(F)(F)F)CC3)c(=O)n21)N1CCCC1 (single isomer, unassigned) [Example 186]
0.091 nM | Cc1ccc(Cn2nc3n(c2=O)[C@H](C(=O)N2CCC4CC42)CCC3)cc1 (single isomer, unassigned) [Example 188]
34 nM | Cc1ccc(Cn2nc3n(c2=O)[C@H](C(=O)N2CCC4CC42)CCC3)cc1 (single isomer, unassigned) [Example 189]
0.42 nM | Cc1ccc(Cn2nc3n(c2=O)[C@H](C(=O)N2CC[S+]([O-])C2)CCC3)cc1 (single isomer, unassigned) [Example 193]
0.375 nM | Cc1ccc(Cn2nc3n(c2=O)[C@H](C(=O)N2CC[S+]([O-])C2)CCC3)cc1 (single isomer, unassigned) [Example 194]
235 nM | O=C([C@@H]1CCCc2nn(Cc3ccc(Cl)nc3)c(=O)n21)N1CCC2CC21 (single isomer, unassigned) [Example 197]
